According to ChEMBL document CHEMBL1151905, “Discovery of 5-substituted 2-amino-4-chloro-8-((4-methoxy-3,5-dimethylpyridin-2-yl)methyl)-7,8-dihydropteridin-6(5H)-ones as potent and selective Hsp90 inhibitors” (Bioorg Med Chem Lett, 2009):
In brackets after ≈: the same amount, converted by molar mass.

Experiments:
[1] = target: Heat shock protein HSP90 (Homo sapiens, UniProt P07900+P08238); test: Inhibition of HSP90 in human SKBR3 cells assessed as induction of Her2 degradation; assay type: cell-based; details: sk-br-3
[2] = system: BT-474; test: Growth inhibition of human BT474 cells; assay type: functional, cell-based
[3] = Inhibition of HSP90 by fluorescence polarization assay
[4] = system: HT-29; test: Growth inhibition of human HT-29 cells; assay type: functional, cell-based
[5] = system: SK-BR-3; test: Growth inhibition of human SKBR3 cells; assay type: functional, cell-based
[6] = system: MCF7; test: Growth inhibition of human MCF7 cells; assay type: functional, cell-based
[7] = system: HMEC; test: Growth inhibition of HMEC cells; assay type: cell-based; details: Homo sapiens
[8] = system: MCF7; test: Selectivity index, ratio of IC50 for HMEC cells to IC50 for human MCF7 cells; assay type: functional
[9] = system: HT-29; test: Selectivity index, ratio of IC50 for HMEC cells to IC50 for human HT-29 cells; assay type: functional
[10] = system: HMEC; test: Selectivity index, ratio of IC50 for HMEC cells to IC50 for human BT474 cells; assay type: functional
[11] = system: HMEC; test: Selectivity index, ratio of IC50 for HMEC cells to IC50 for human SKBR3 cells; assay type: functional
[12] = Metabolic stability in rat liver microsomes; assay type: ADME, Microsome
[13] = Oral bioavailability in rat; assay type: ADME, organism-based; details: in vivo
[14] = Metabolic stability in mouse liver microsomes; assay type: ADME, Microsome
[15] = Aqueous solubility at pH 3; assay type: physicochemical
[16] = Metabolic stability in human liver microsomes; assay type: ADME, Microsome

Structure (SMILES) | IC50 [1] | IC50 [2] | IC50 [3] | IC50 [4] | IC50 [5] | IC50 [6] | other results
COc1c(C)cnc(CN2c3nc(N)nc(Cl)c3NC(=O)[C@H]2C)c1C | 0.35 µM | 0.41 µM | 0.4 µM | 0.47 µM | 0.22 µM | 0.79 µM | –
COc1c(C)cnc(CN2CC(=O)N(C3CCCC3)c3c(Cl)nc(N)nc32)c1C | 0.11 µM | 0.29 µM | – | 0.33 µM | 0.12 µM | 0.82 µM | –
COc1c(C)cnc(CN2CCNc3c(Cl)nc(N)nc32)c1C | > 5 µM | – | > 5 µM | – | – | – | –
COc1c(C)cnc(CN2CC(=O)N(C(=O)NCCN3CCOCC3)c3c(Cl)nc(N)nc32)c1C | > 10 µM | > 100 µM | – | 1.2 µM | > 5 µM | 2.14 µM | –
COc1c(C)cnc(Cn2c(=O)c(=O)[nH]c3c(Cl)nc(N)nc32)c1C | > 5 µM | – | – | – | – | – | –
COc1c(C)cnc(CN2CC(=O)N(CCCN3CCOCC3)c3c(Cl)nc(N)nc32)c1C | 1.55 µM | 1.81 µM | – | 2.95 µM | 1.11 µM | 2.59 µM | –
COc1c(C)cnc(CN2c3nc(N)nc(Cl)c3NC(=O)[C@@H]2CC(C)C)c1C | 0.37 µM | 0.49 µM | – | 0.69 µM | 0.23 µM | 0.93 µM | –
COc1c(C)cnc(CN2CC(=O)Nc3c(Cl)nc(N)nc32)c1C | 0.57 µM | 0.65 µM | 0.88 µM | 1.18 µM | 0.39 µM | 1.49 µM | half-life [12]: > 1 h; bioavailability [13]: 60%; half-life [14]: > 1 h; solubility [15]: 381 µM (≈ 133 µg/mL); half-life [16]: > 1 h
COc1c(C)cnc(CN2CC(OC3CCCC3)=Nc3c(Cl)nc(N)nc32)c1C | 0.01 µM | 0.01 µM | – | 0.02 µM | 0.005 µM | 0.04 µM | –
COc1c(C)cnc(CN2c3nc(N)nc(Cl)c3NC(=O)[C@@H]2C(C)C)c1C | 0.65 µM | 0.76 µM | 2.14 µM | 1.06 µM | 0.43 µM | 1.6 µM | –
COc1c(C)cnc(CN2c3nc(N)nc(Cl)c3NC(=O)[C@@H]2CCO)c1C | 0.28 µM | – | 0.64 µM | – | – | – | –
COc1c(C)cnc(CN2c3nc(N)nc(Cl)c3NC(=O)[C@@H]2C)c1C | 0.43 µM | 0.47 µM | – | 0.66 µM | 0.25 µM | 0.94 µM | –
COc1c(C)cnc(CN2c3nc(N)nc(Cl)c3N(C(C)C)C(=O)[C@@H]2C(C)C)c1C | 0.06 µM | 0.02 µM | 0.08 µM | 0.09 µM | 0.005 µM | 0.04 µM | –
COc1c(C)cnc(Cn2c(=O)cnc3c(Cl)nc(N)nc32)c1C | > 10 µM | – | – | – | – | – | –

The next lines start with results.

IC50 [1] | IC50 [2] | IC50 [3] | IC50 [4] | IC50 [5] | IC50 [6] | Structure (SMILES) | other results
0.51 µM | 0.52 µM | 0.66 µM | 1.08 µM | 0.3 µM | 1.32 µM | COc1c(C)cnc(CN2CC(=O)N(CCN3CCCC3)c3c(Cl)nc(N)nc32)c1C | –
0.05 µM | 0.03 µM | 0.07 µM | 0.06 µM | 0.02 µM | 0.05 µM | COc1c(C)cnc(CN2CC(=O)N(C(C)C)c3c(Cl)nc(N)nc32)c1C | IC50 [7]: 0.32 µM
1.07 µM | – | – | – | – | – | COc1nc(N)nc2c1N(CC(C)C)C(=O)CN2Cc1ncc(C)c(OC)c1C | –
> 5 µM | – | – | – | – | – | COc1c(C)cnc(CN2c3nc(N)nc(Cl)c3N(CC(C)C)C(=O)[C@@H]2C)c1C | –
0.16 µM | 0.03 µM | – | 0.04 µM | 0.01 µM | 0.1 µM | COc1ccnc(CN2CC(=O)N(CC(C)C)c3c(Cl)nc(N)nc32)c1OC | IC50 [7]: 0.24 µM; Ratio IC50 [8]: 2; Ratio IC50 [9]: 6; Ratio IC50 [10]: 6; Ratio IC50 [11]: 6
0.04 µM | 0.02 µM | 0.05 µM | 0.04 µM | 0.01 µM | 0.07 µM | COc1c(C)cnc(CN2CC(=O)N(CC(C)C)c3c(Cl)nc(N)nc32)c1C | IC50 [7]: 0.13 µM; Ratio IC50 [8]: 2; Ratio IC50 [9]: 3; Ratio IC50 [10]: 6; Ratio IC50 [11]: 13
> 5 µM | – | – | – | – | – | COc1c(C)cnc(CN2c3nc(N)nc(Cl)c3N(CC(C)C)C(=O)[C@@H]2C(C)C)c1C | –
0.59 µM | 0.24 µM | – | 0.28 µM | 0.11 µM | 0.47 µM | Cc1cnc(CN2CC(=O)N(CC(C)C)c3c(Cl)nc(N)nc32)c(C)c1Cl | –
0.98 µM | – | – | – | – | – | COc1c(C)cnc(CN2CC(=O)N(CC(C)C)c3c(C)nc(N)nc32)c1C | –
> 5 µM | – | – | – | – | – | COc1nc(CN2CC(=O)N(CC(C)C)c3c(Cl)nc(N)nc32)c(Cl)c(OC)c1OC | –
0.93 µM | 0.95 µM | 0.96 µM | 1.47 µM | 0.46 µM | 2.19 µM | COc1c(C)cnc(CN2CC(=O)N(C)c3c(Cl)nc(N)nc32)c1C | –
0.1 µM | 0.06 µM | – | 0.1 µM | 0.03 µM | 0.12 µM | COc1c(C)cnc(CN2CC(=O)N(C(C)C(=O)NCCN(C)C)c3c(Cl)nc(N)nc32)c1C (stereo not drawn) | –
0.1 µM | 0.13 µM | 0.06 µM | 0.14 µM | 0.06 µM | 0.28 µM | Cc1cnc(CN2CC(=O)N(CC(C)C)c3c(Cl)nc(N)nc32)c(C)c1Br | IC50 [7]: 0.18 µM
1.91 µM | 1.65 µM | 0.9 µM | 2.26 µM | 0.97 µM | 3.11 µM | COc1c(C)cnc(CN2CC(=O)N(CCCC(C)C)c3c(Cl)nc(N)nc32)c1C | –
